Columns and labels:
[1] = molecular target: D(2) dopamine receptor (Homo sapiens, UniProt P14416); assay: Binding affinity against [3H]U-86,170-labeled dopamine receptor D2 in cloned CHO cells; format: cell-based
[2] = molecular target: D(2) dopamine receptor (Rattus norvegicus, UniProt P61169); assay: Binding affinity for [3H]raclopride-labeled dopamine receptor D2 in rat striatum; format: tissue-based
[3] = test system: Mus musculus; assay: Effective dose on hypothermia in mouse when administered subcutaneously; format: functional; details: sc
[4] = test system: Mus musculus; assay: Effective dose on hypothermia in mouse when administered through peroral route; format: functional; details: Mus musculus, po; read-out: ED50
[5] = test system: Mus musculus; assay: Time of effect in the isolation-induced aggression behavioral assay in the mouse when a dose of 0.0 micro mol/kg is administered intraperitoneally; format: functional
[6] = test system: Mus musculus; assay: Time of effect in the isolation-induced aggression behavioral assay in the mouse when a dose of 1.1 micro mol/kg is administered intraperitoneally; format: functional
[7] = test system: Mus musculus; assay: Time of effect in the isolation-induced aggression behavioral assay in the mouse when a dose of 11 micro mol/kg is administered intraperitoneally (*,p<0.05); format: functional
[8] = test system: Mus musculus; assay: Maximum decrease in temperature when compound is administered subcutaneously; format: functional
[9] = test system: Mus musculus; assay: Maximum decrease in temperature when compound is administered through peroral route; format: functional
[10] = test system: Mus musculus; assay: Time of effect in the isolation-induced aggression behavioral assay in the mouse when a dose of 3.5 micro mol/kg is administered intraperitoneally (*,p<0.05); format: functional
[11] = test system: Mus musculus; assay: Time of effect in the isolation-induced aggression behavioral assay in the mouse when a dose of 36 micro mol/kg is administered intraperitoneally (*,p<0.05); format: functional
[12] = test system: Mus musculus; assay: Time of effect in the isolation-induced aggression behavioral assay in the mouse when a dose of 0.4 micro mol/kg is administered intraperitoneally; format: functional
[13] = test system: Rattus norvegicus; assay: Effect on the synthesis rates of dopamine (DOPA accumulation) in the rat ventral limbic brain region at 3.5 umol/kg; format: functional, Limbic system
[14] = test system: Rattus norvegicus; assay: Effect on the synthesis rates of serotonin (5-HTP accumulation) in the rat ventral limbic brain region 3.5 umol/kg; format: functional, Limbic system
[15] = test system: Rattus norvegicus; assay: Inhibition of firing rates of dopaminergic neurons in the substantia nigra pars compacta by intravenous injection in rats; format: functional
[16] = test system: Rattus norvegicus; assay: Inhibition of firing rates of serotonergic neurons in the dorsal raphe nucleus by intravenous injection in rats; format: functional; details: Rattus norvegicus, Dorsal raphe nucleus, iv; read-out: ED50
[17] = test system: Mus musculus; assay: Ability to stimulate dopaminergic systems by effect on locomotor activity in reserpinized mice when a dose of 3.5 micro mol/kg is administered intraperitoneally (*,p<0.05); format: functional
[18] = test system: Mus musculus; assay: Ability to stimulate dopaminergic systems by effect on locomotor activity in reserpinized mice when a dose of 35 micro mol/kg is administered intraperitoneally (*,p<0.05); format: functional
[19] = test system: Mus musculus; assay: Ability to stimulate dopaminergic systems by effect on locomotor activity in reserpinized mice when a dose of 0.4 micro mol/kg is administered intraperitoneally; format: functional
[20] = test system: Mus musculus; assay: Antagonism of apomorphine in reserpinized mice when a dose of 0.4 micro mol/kg is administered intraperitoneally; format: functional
[21] = test system: Mus musculus; assay: Antagonism of apomorphine in reserpinized mice when a dose of 3.5 micro mol/kg is administered intraperitoneally; format: functional
[22] = test system: Mus musculus; assay: Antagonism of apomorphine in reserpinized mice when a dose of 35 micro mol/kg is administered intraperitoneally; format: functional
[23] = molecular target: Sodium-dependent dopamine transporter (Rattus norvegicus) (UniProt P23977); assay: Inhibition of firing rates of dopaminergic neurons in the substantia nigra pars compacta by intravenous injection in rats.; format: functional, tissue-based
[24] = molecular target: Sodium-dependent dopamine transporter (Rattus norvegicus) (UniProt P23977); assay: Inhibition of firing rates of serotonergic neurons in the dorsal raphe nucleus by intravenous injection in rats.; format: functional, tissue-based
[25] = organism: Mus musculus; assay: Time of effect in the face-to-face behavioral assay in the mouse […]; format: functional
[26] = test system: Mus musculus; assay: Time of effect in the face-to-face behavioral assay in the mouse when a dose of 0.3 micro mol/kg is administered subcutaneously; format: functional
[27] = test system: Mus musculus; assay: Time of effect in the face-to-face behavioral assay in the mouse when a dose of 3.0 micro mol/kg is administered subcutaneously; format: functional
[28] = test system: Mus musculus; assay: Time of effect in the face-to-face behavioral assay in the mouse when a dose of 30 micro mol/kg is administered subcutaneously; format: functional
[29] = test system: Mus musculus; assay: Time of effect in the isolation-induced aggression behavioral assay in the mouse when a dose of 0.9 micro mol/kg is administered intraperitoneally; format: functional
[30] = test system: Mus musculus; assay: Time of effect in the isolation-induced aggression behavioral assay in the mouse when a dose of 3.0 micro mol/kg is administered intraperitoneally; format: functional
[31] = test system: Mus musculus; assay: Time of effect in the isolation-induced aggression behavioral assay in the mouse when a dose of 30 micro mol/kg is administered intraperitoneally; format: functional
[32] = test system: Mus musculus; assay: Time of effect in the isolation-induced aggression behavioral assay in the mouse when a dose of 0.3 micro mol/kg is administered intraperitoneally; format: functional
[33] = test system: Mus musculus; assay: Time of effect in the isolation-induced aggression behavioral assay in the mouse when a dose of 9.1 micro mol/kg is administered intraperitoneally; format: functional
[34] = test system: Rattus norvegicus; assay: Effect on the synthesis rates of dopamine in the rat ventral limbic brain region at 0.3 micro mol/kg.; format: functional, Limbic system
[35] = test system: Rattus norvegicus; assay: Effect on the synthesis rates of serotonin in the rat ventral limbic brain region 0.3 micro mol/kg.; format: functional, Limbic system
[36] = test system: Rattus norvegicus; assay: Effect on the synthesis rates of serotonin in the rat ventral limbic brain region 3.0 micro mol/kg.; format: functional, Limbic system
[37] = test system: Rattus norvegicus; assay: Effect on the synthesis rates of dopamine in the rat ventral limbic brain region at 3.0 micro mol/kg; format: functional, Limbic system
[38] = organism: Felis catus; assay: Percent of arterial blood pressure at sympathetic nerve activity (SND) dose value was determined; format: functional
[39] = test system: Felis catus; assay: Maximum decrease of arterial blood pressure at sympathetic nerve activity (SND) in anesthetized cat has been observed following 1 mg/kg dose; format: functional; design: scale not given: the % may be the effect or the level left
[40] = test system: Felis catus; assay: Maximum decrease of sympathetic nerve activity (SND) in anesthetized cat has been expressed as percent control; format: functional; design: scale not given: the % may be the effect or the level left
[41] = test system: Felis catus; assay: Effective dose at which the sympathetic nerve activity (SND) has been reduced to 50% of the pretreatment value in anesthetized cat; format: functional
[42] = test system: Mus musculus; assay: Time of effect in the face-to-face behavioral assay in the mouse when a dose of 2.8 micro mol/kg is administered subcutaneously; format: functional
[43] = test system: Mus musculus; assay: Time of effect in the face-to-face behavioral assay in the mouse when a dose of 28 micro mol/kg is administered subcutaneously; format: functional
[44] = test system: Mus musculus; assay: Time of effect in the face-to-face behavioral assay in the mouse when a dose of 8.4 micro mol/kg is administered subcutaneously; format: functional
[45] = test system: Mus musculus; assay: Antagonism of apomorphine in reserpinized mice when a dose of 0.3 micro mol/kg is administered intraperitoneally; format: functional
[46] = test system: Mus musculus; assay: Antagonism of apomorphine in reserpinized mice when a dose of 2.7 micro mol/kg is administered intraperitoneally; format: functional
[47] = test system: Mus musculus; assay: Antagonism of apomorphine for 10-20 minutes in reserpinized mice when a dose of 2.7 micro mol/kg is administered intraperitoneally; format: functional
[48] = test system: Mus musculus; assay: Antagonism of apomorphine for 0-10 minutes in reserpinized mice when a dose of 2.7 micro mol/kg is administered intraperitoneally; format: functional
[49] = test system: Mus musculus; assay: Antagonism of apomorphine for 0-10 minutes in reserpinized mice when a dose of 0.3 micro mol/kg is administered intraperitoneally; format: functional
[50] = test system: Mus musculus; assay: Ability to stimulate dopaminergic systems by effect on locomotor activity in reserpinized mice when a dose of 0.3 micro mol/kg is administered intraperitoneally; format: functional
[51] = test system: Mus musculus; assay: Ability to stimulate dopaminergic systems by effect on locomotor activity in reserpinized mice when a dose of 2.7 micro mol/kg is administered intraperitoneally; format: functional
[52] = test system: Rattus norvegicus; assay: Effect on the synthesis rates of serotonin in the rat ventral limbic brain region 2.7 micro mol/kg.; format: functional, Limbic system
[53] = test system: Rattus norvegicus; assay: Effect on the synthesis rates of dopamine in the rat ventral limbic brain region at 2.7 micro mol/kg.; format: functional, Limbic system
[54] = test system: Mus musculus; assay: Antagonism of apomorphine for 10-20 minutes in reserpinized mice when a dose of 0.3 micro mol/kg is administered intraperitoneally; format: functional

Sodium-dependent dopamine transporter (Rattus norvegicus), sequence (P23977 whole entry): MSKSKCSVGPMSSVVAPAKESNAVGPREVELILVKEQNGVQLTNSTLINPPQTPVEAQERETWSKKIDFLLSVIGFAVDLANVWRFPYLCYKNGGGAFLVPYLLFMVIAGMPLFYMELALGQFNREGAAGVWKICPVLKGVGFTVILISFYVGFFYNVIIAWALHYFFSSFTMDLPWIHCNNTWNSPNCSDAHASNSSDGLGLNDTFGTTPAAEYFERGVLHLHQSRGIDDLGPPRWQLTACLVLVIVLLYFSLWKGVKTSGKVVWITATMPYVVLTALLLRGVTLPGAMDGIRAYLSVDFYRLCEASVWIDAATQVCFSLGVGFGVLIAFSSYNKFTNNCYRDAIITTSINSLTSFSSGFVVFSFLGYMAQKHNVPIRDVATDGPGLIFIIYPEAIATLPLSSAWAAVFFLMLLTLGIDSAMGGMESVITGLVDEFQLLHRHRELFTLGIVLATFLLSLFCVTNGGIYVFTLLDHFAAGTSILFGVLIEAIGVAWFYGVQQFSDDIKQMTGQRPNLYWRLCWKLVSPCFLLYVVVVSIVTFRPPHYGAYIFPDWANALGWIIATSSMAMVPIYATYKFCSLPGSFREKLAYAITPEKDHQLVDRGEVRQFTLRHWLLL
D(2) dopamine receptor (Homo sapiens, UniProt P14416), sequence (P14416 whole entry): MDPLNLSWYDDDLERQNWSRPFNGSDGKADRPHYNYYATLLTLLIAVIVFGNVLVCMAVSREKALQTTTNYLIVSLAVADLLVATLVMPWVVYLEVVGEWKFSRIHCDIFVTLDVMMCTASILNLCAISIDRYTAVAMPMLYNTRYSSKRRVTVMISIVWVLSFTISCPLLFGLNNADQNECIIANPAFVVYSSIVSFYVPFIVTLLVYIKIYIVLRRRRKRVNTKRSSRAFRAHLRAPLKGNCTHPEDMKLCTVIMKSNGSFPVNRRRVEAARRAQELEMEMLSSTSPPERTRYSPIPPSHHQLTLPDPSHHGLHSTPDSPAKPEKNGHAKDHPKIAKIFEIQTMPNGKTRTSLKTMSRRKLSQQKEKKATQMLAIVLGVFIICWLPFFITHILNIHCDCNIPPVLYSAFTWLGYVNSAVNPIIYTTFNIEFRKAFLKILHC
D(2) dopamine receptor (Rattus norvegicus, UniProt P61169), sequence (P61169 whole entry): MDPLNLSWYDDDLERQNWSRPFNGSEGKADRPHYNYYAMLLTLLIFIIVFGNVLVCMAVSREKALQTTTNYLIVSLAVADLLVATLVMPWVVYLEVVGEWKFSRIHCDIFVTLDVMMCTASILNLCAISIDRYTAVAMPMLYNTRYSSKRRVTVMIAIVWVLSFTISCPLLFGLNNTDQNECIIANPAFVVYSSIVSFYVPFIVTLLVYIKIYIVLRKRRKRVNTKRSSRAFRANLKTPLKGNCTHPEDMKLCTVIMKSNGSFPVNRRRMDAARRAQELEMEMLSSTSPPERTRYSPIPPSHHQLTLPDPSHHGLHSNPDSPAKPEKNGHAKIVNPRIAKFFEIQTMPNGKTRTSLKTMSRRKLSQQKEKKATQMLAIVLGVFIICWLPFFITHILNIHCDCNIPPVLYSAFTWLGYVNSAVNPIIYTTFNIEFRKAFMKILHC

CCCN1CC[C@@H]2Cc3c(cccc3OC)C[C@H]21 (racemic)
Ki [1]: 100 nM | Ki [2]: 877 nM | ED50 ([3]; Mus musculus, read-out: ED50): 0.4 µmol/kg | ED50 [4]: > 355 µmol/kg | Time [5]: 9 s | Time [6]: 134 s | Time [7]: 268 s | Max temperature decrease [8]: 6.7 | Max temperature decrease [9]: 1.4 | Time [10]: 384 s | Time [11]: 450 s | Time [12]: 6 s | Control [13]: -39% | Control [14]: -29% | ED50 [15]: 0.66 µmol/kg | ED50 [16]: 0.07 µmol/kg | Locomotor activity [17]: 1168 | Locomotor activity [18]: 561 | Locomotor activity [19]: 251 | Locomotor activity [20]: 148 | Locomotor activity [21]: 129 | Locomotor activity [22]: 61

CCCN(CCC)C1CCc2cccc(O)c2C1 (stereo unspecified) [8-OH-DPAT]
ED50 [23]: 2.25 µmol/kg | ED50 [24]: 0.005 µmol/kg | ED50 [3]: 1 µmol/kg | ED50 [4]: 9.7 µmol/kg | Time [25]: 1.1 s | Time [26]: 1.6 s | Time [27]: 5 s | Time [28]: 4.4 s | Time [29]: 20 s | Time [30]: 310 s | Max temperature decrease [8]: 7.2 | Max temperature decrease [9]: 7.5 | Time [31]: 351 s | Time [32]: 11 s | Time [33]: 437 s | Control [34]: 16% | Control [35]: -37% | Control [36]: -47% | Control [37]: 3% | BP [38]: 66% | Control [39]: 57% | Control [40]: 2% | ED50 [41]: 0.03 µmol/kg

CN(C)CCCN1c2ccccc2Sc2ccc(Cl)cc21.Cl [CHLORPROMAZINE HYDROCHLORIDE]
Time [25]: 3.6 s | Time [42]: 5.8 s | Time [43]: 0 s | Time [44]: 1.3 s

O=C(CCCN1CCC(O)(c2ccc(Cl)cc2)CC1)c1ccc(F)cc1 [HALOPERIDOL]
Locomotor activity [45]: 58 | Locomotor activity [46]: 10 | Locomotor activity [47]: 28 | Locomotor activity [48]: 72 | Locomotor activity [49]: 94 | Locomotor activity [50]: 9 | Locomotor activity [51]: 1 | Control [52]: -6.6% | Control [53]: 144% | ED50 [15]: 0.018 µmol/kg | ED50 [16]: 0.019 µmol/kg | Locomotor activity [54]: 71
